From article PMC8568899, “Molecular mechanisms of the CdnG-Cap5 antiphage defense system employing 3′,2′-cGAMP as the second messenger” (Nature Communications, 2021)
Positions count from the first letter of the chain named.

Key:
Experiment in all cases: DNA degradation, agarose gel
Assay type in all cases: biochemical
LlCap5 [1] = molecular target: T1, LlCap5 (Lactococcus cremoris, UniProt A0A1E7G0A2); settings: activator; 50 nM Cap5, linearized plasmid 25 nM; 1 mM MgCl2, 0.5 mM MnCl2, pH 7.4, 37 °C, 15 min; 10-fold dilution steps
T1 construct: gene AJ89_14580; full length; E. coli BL21(DE3), N-terminal 6xHis-SUMO tag cut with Ulp1; codon-optimized gene; homodimer (N-terminal HNH, C-terminal SAVED)
T1 sequence (A0A1E7G0A2 entry or part of it): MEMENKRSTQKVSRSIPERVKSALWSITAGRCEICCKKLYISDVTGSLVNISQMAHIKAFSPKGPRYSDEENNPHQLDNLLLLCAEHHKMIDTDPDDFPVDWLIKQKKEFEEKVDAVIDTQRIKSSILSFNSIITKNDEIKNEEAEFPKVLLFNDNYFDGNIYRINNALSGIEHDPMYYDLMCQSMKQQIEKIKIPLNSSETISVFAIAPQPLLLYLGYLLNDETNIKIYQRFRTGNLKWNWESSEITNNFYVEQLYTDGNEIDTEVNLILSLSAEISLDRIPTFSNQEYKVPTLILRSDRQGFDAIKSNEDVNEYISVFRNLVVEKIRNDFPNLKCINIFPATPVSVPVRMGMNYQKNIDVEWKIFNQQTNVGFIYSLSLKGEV

AsCap5 [2] = molecular target: T2, AsCap5 (Asticcacaulis sp., UniProt Z9IC27YPF2, K347R); settings: activator; 10 nM cGAMP; linearized plasmid 25 nM; 1 mM MgCl2, 0.5 mM MnCl2, pH 7.4, 37 °C, 15 min
T2 construct: full length; E. coli BL21(DE3), N-terminal 6xHis-SUMO tag cut with Ulp1; codon-optimized gene; homodimer (N-terminal HNH, C-terminal SAVED)
T2 sequence (Z9IC27YPF2 1-384 K347R): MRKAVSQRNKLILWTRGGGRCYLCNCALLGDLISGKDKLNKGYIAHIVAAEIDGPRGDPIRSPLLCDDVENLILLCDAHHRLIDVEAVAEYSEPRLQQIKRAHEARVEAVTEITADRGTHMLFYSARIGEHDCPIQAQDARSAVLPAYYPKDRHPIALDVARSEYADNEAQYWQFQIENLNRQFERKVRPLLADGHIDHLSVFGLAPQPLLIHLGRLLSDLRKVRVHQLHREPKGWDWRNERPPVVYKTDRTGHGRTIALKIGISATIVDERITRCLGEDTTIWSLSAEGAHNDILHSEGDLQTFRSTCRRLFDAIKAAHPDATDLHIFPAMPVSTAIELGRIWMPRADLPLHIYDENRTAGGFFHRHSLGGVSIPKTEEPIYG

AsCap5 [3] = molecular target: T3, AsCap5 (Asticcacaulis sp., UniProt Z9IC27YPF2, D349A); settings: activator; 10 nM cGAMP; linearized plasmid 25 nM; 1 mM MgCl2, 0.5 mM MnCl2, pH 7.4, 37 °C, 15 min
T3 construct: full length; E. coli BL21(DE3), N-terminal 6xHis-SUMO tag cut with Ulp1; codon-optimized gene; homodimer (N-terminal HNH, C-terminal SAVED)
T3 sequence (Z9IC27YPF2 1-384 D349A): T2 sequence (Z9IC27YPF2 1-384 K347R) with R347K, D349A

AsCap5 [4] = molecular target: T4, AsCap5 (Asticcacaulis sp., UniProt Z9IC27YPF2, R310Q); settings: activator; 10 nM cGAMP; linearized plasmid 25 nM; 1 mM MgCl2, 0.5 mM MnCl2, pH 7.4, 37 °C, 15 min
T4 construct: full length; E. coli BL21(DE3), N-terminal 6xHis-SUMO tag cut with Ulp1; codon-optimized gene; homodimer (N-terminal HNH, C-terminal SAVED)
T4 sequence (Z9IC27YPF2 1-384 R310Q): T2 sequence (Z9IC27YPF2 1-384 K347R) with R310Q, R347K

AsCap5 [5] = molecular target: T5, AsCap5 (Asticcacaulis sp., UniProt Z9IC27YPF2); settings: activator; 50 nM Cap5, linearized plasmid 25 nM; 1 mM MgCl2, 0.5 mM MnCl2, pH 7.4, 37 °C, 15 min; 10-fold dilution steps
T5 construct: full length; E. coli BL21(DE3), N-terminal 6xHis-SUMO tag cut with Ulp1; codon-optimized gene; homodimer (N-terminal HNH, C-terminal SAVED)
T5 sequence (Z9IC27YPF2 1-384): T2 sequence (Z9IC27YPF2 1-384 K347R) with R347K

AsCap5 [6] = molecular target: T6, AsCap5 (Asticcacaulis sp., UniProt Z9IC27YPF2, K347A); settings: activator; 10 nM cGAMP; linearized plasmid 25 nM; 1 mM MgCl2, 0.5 mM MnCl2, pH 7.4, 37 °C, 15 min
T6 construct: full length; E. coli BL21(DE3), N-terminal 6xHis-SUMO tag cut with Ulp1; codon-optimized gene; homodimer (N-terminal HNH, C-terminal SAVED)
T6 sequence (Z9IC27YPF2 1-384 K347A): T2 sequence (Z9IC27YPF2 1-384 K347R) with R347A

AsCap5 [7] = molecular target: T7, AsCap5 (Asticcacaulis sp., UniProt Z9IC27YPF2, D220A); settings: activator; 10 nM cGAMP; linearized plasmid 25 nM; 1 mM MgCl2, 0.5 mM MnCl2, pH 7.4, 37 °C, 15 min
T7 construct: full length; E. coli BL21(DE3), N-terminal 6xHis-SUMO tag cut with Ulp1; codon-optimized gene; homodimer (N-terminal HNH, C-terminal SAVED)
T7 sequence (Z9IC27YPF2 1-384 D220A): T2 sequence (Z9IC27YPF2 1-384 K347R) with D220A, R347K

AsCap5 [8] = molecular target: T8, AsCap5 (Asticcacaulis sp., UniProt Z9IC27YPF2, R310K); settings: activator; 10 nM cGAMP; linearized plasmid 25 nM; 1 mM MgCl2, 0.5 mM MnCl2, pH 7.4, 37 °C, 15 min
T8 construct: full length; E. coli BL21(DE3), N-terminal 6xHis-SUMO tag cut with Ulp1; codon-optimized gene; homodimer (N-terminal HNH, C-terminal SAVED)
T8 sequence (Z9IC27YPF2 1-384 R310K): T2 sequence (Z9IC27YPF2 1-384 K347R) with R310K, R347K

AsCap5 [9] = molecular target: T9, AsCap5 (Asticcacaulis sp., UniProt Z9IC27YPF2, K347Q); settings: activator; 10 nM cGAMP; linearized plasmid 25 nM; 1 mM MgCl2, 0.5 mM MnCl2, pH 7.4, 37 °C, 15 min
T9 construct: full length; E. coli BL21(DE3), N-terminal 6xHis-SUMO tag cut with Ulp1; codon-optimized gene; homodimer (N-terminal HNH, C-terminal SAVED)
T9 sequence (Z9IC27YPF2 1-384 K347Q): T2 sequence (Z9IC27YPF2 1-384 K347R) with R347Q

LlCap5 [10] = molecular target: T1, LlCap5; settings: activator; 50 nM Cap5, linearized plasmid 25 nM; 1 mM MgCl2, 0.5 mM MnCl2, pH 7.4, 37 °C, 15 min; 10-fold dilution steps; remark: listed apart in the source
AsCap5 [11] = molecular target: T5, AsCap5; settings: activator; 50 nM Cap5, linearized plasmid 25 nM; 1 mM MgCl2, 0.5 mM MnCl2, pH 7.4, 37 °C, 15 min; 10-fold dilution steps; remark: listed apart in the source

| Compound | concentration giving significant DNA degradation (LlCap5 [1]) | fold less active than wild type (AsCap5 [2]) | estimated activity (AsCap5 [3]) | estimated activity (AsCap5 [4]) | concentration giving significant DNA degradation (AsCap5 [5]) | % reduction of activity (AsCap5 [6]) | estimated activity (% of wild type) (AsCap5 [7]) | estimated activity (AsCap5 [8]) | estimated activity (AsCap5 [9]) | concentration giving same degradation as 10 nM 3′,2′-cGAMP (LlCap5 [10]) | concentration giving same degradation as 10 nM 3′,2′-cGAMP (AsCap5 [11]) |
| --- | --- | --- | --- | --- | --- | --- | --- | --- | --- | --- | --- |
| Nc1nc2c(ncn2[C@@H]2O[C@@H]3COP(=O)(O)O[C@@H]4[C@H](O)[C@@H](COP(=O)(O)O[C@H]3[C@H]2O)O[C@H]4n2cnc3c(N)ncnc32)c(=O)[nH]1 [3′,2′-cGAMP] | ~ 10 nM | ~ 10 fold | D349A mutation showed a similar degree of reduced activity as D220A mutation | R310K and R310Q mutants, and both also showed significantly reduced activities | ~ 10 nM | ~ 98% | ~ 15% | R310K and R310Q mutants, and both also showed significantly reduced activities | it was even less active than K347A mutant | – | – |
| Nc1nc2c(ncn2[C@@H]2O[C@@H]3COP(=O)(O)O[C@H]4[C@@H](O)[C@H](n5cnc6c(N)ncnc65)O[C@@H]4COP(=O)(O)O[C@H]3[C@H]2O)c(=O)[nH]1 [3′,3′-cGAMP] | – | – | – | – | – | – | – | – | – | ~ 100 μM | ~ 100 μM |
